{"source": "patent US12565497B2", "about": "(Hoffmann-La Roche Inc., priority 2020, dated 2026)", "target": "Recombinant human Mat2a (Homo sapiens (Human), UniProt P31153)", "sequence (P31153 whole entry)": "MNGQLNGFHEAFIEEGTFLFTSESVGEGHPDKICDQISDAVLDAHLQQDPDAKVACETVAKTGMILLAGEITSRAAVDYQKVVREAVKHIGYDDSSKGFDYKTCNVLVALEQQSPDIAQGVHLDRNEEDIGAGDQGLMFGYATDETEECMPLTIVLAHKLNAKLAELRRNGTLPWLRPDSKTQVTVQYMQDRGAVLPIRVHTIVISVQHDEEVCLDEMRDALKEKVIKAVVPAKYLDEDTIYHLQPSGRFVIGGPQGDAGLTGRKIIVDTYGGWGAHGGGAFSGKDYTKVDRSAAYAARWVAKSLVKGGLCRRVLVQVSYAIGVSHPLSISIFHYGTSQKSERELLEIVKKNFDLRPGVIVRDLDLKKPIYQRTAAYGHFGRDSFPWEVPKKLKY", "test": "Determination of Mat2A activity (384 well absorbance-based assay, Biomol Green)", "format": "biochemical", "conditions": "12.5 nM Mat2A, 100 μM ATP and Methionine, 2% DMSO, 120 minutes at RT, absorbance at 635 nm; read-out: MAT2A_LEC IC50 (uM) (Num)", "method": "Determination of Mat2A Activity\nMeasurement of Mat2A inhibition is performed in 384 well format absorbance-based assay. Recombinant human Mat2a (12.5 nM) and serial diluted compounds in DMSO (range of concentrations from 10 μM to 508 pM) or controls (DMSO) are incubated for 15 minutes at room temperature (RT) in assay buffer containing 50 mM HEPES pH 7.5, 50 mM KCl, 50 mM MgCl2, 0.01%Tween 20 and 10 mM DTT. The reaction is initiated by the addition of the combined substrates ATP and Methionine, each at a final concentration of 100 μM. Final assay condition are 12.5 nM Mat2A, 100 μM ATP and Methionine Substrates and 2% DMSO. After 120 minutes of incubation at RT, the reaction is stopped by the addition of Biomol Green. The absorbance signal is measured at λ=635 nm with a multiplate reader (BMG Pherastar reader or equivalent) after 30 min of equilibration at RT.", "note": "Where a name gives a salt, the structure may show the parent alone."}
{"compound": "Cc1cc(-c2nccc3[nH]nc(C4CC4)c23)ccc1S(C)(=O)=O", "note": "[Example 1, 3-cyclopropyl-4-(3-methyl-4-(methylsulfonyl)phenyl)-1H-pyrazolo[4,3-c]pyridine]", "values": [{"measurement": "IC50", "result": 0.048, "unit": "µM"}]}
{"compound": "COc1cc(-c2nccc3[nH]nc(C4CC4)c23)ccc1S(C)(=O)=O", "note": "[Example 2, 3-cyclopropyl-4-(3-methoxy-4-(methylsulfonyl)phenyl)-1H-pyrazolo[4,3-c]pyridine]", "values": [{"measurement": "IC50", "result": 0.37, "unit": "µM"}]}
{"compound": "CS(=O)(=O)c1ccc(-c2nccc3[nH]nc(C4CC4)c23)cc1Cl", "note": "[Example 3, 4-(3-chloro-4-(methylsulfonyl)phenyl)-3-cyclopropyl-1H-pyrazolo[4,3-c]pyridine]", "values": [{"measurement": "IC50", "result": 0.15, "unit": "µM"}]}
{"compound": "CS(=O)(=O)c1ccc(-c2nccc3[nH]nc(C4CC4)c23)cc1C(F)(F)F", "note": "[Example 4, 3-cyclopropyl-4-(4-(methylsulfonyl)-3-(trifluoromethyl)phenyl)-1H-pyrazolo[4,3-c]pyridine]", "values": [{"measurement": "IC50", "result": 0.24, "unit": "µM"}]}
{"compound": "Cc1cc(-c2nccc3[nH]nc(C4CC4)c23)ccc1S(=O)(=O)N(C)C", "note": "[Example 5, 4-(3-cyclopropyl-1H-pyrazolo[4,3-c]pyridin-4-yl)-N,N,2-trimethylbenzenesulfonamide]", "values": [{"measurement": "IC50", "result": 0.17, "unit": "µM"}]}
{"compound": "COc1ncc2[nH]nc(C3CC3)c2c1-c1ccc(S(C)(=O)=O)cc1", "note": "[Example 6, 3-cyclopropyl-5-methoxy-4-(4-methylsulfonylphenyl)-1H-pyrazolo[3,4-c]pyridine]", "values": [{"measurement": "IC50", "result": 0.17, "unit": "µM"}]}
{"compound": "Cc1cc(-c2nccc3[nH]nc(C4CC4)c23)ccc1S(=O)(=O)C1CC1", "note": "[Example 7, 3-cyclopropyl-4-(4-(cyclopropylsulfonyl)-3-methylphenyl)-1H-pyrazolo[4,3-c]pyridine]", "values": [{"measurement": "IC50", "result": 0.046, "unit": "µM"}]}
{"compound": "O=S(=O)(c1ccc(-c2nccc3[nH]nc(C4CC4)c23)cc1Cl)C1CC1", "note": "[Example 8, 4-(3-chloro-4-(cyclopropylsulfonyl)phenyl)-3-cyclopropyl-1H-pyrazolo[4,3-c]pyridine]", "values": [{"measurement": "IC50", "result": 0.37, "unit": "µM"}]}
{"compound": "CN(C)S(=O)(=O)c1ccc(-c2nccc3[nH]nc(C4CC4)c23)cc1Cl", "note": "[Example 9, 2-chloro-4-(3-cyclopropyl-1H-pyrazolo[4,3-c]pyridin-4-yl)-N,N-dimethylbenzenesulfonamide]", "values": [{"measurement": "IC50", "result": 0.24, "unit": "µM"}]}
{"compound": "CS(=O)(=O)c1ccc(-c2nccc3[nH]nc(C(F)(F)F)c23)cc1", "note": "[Example 11, 4-(4-(methylsulfonyl)phenyl)-3-(trifluoromethyl)-1H-pyrazolo[4,3-c]pyridine]", "values": [{"measurement": "IC50", "result": 0.28, "unit": "µM"}]}
{"compound": "CS(=O)(=O)c1ccc(-c2nccc3[nH]nc(C4CC4)c23)cc1C(F)F", "note": "[Example 12, 3-cyclopropyl-4-(3-(difluoromethyl)-4-(methylsulfonyl)phenyl)-1H-pyrazolo[4,3-c]pyridine]", "values": [{"measurement": "IC50", "result": 0.22, "unit": "µM"}]}
{"compound": "CS(=O)(=O)c1ccc(-c2nccc3[nH]nc(C4CC4)c23)cc1CF", "note": "[Example 13, 3-cyclopropyl-4-(3-(fluoromethyl)-4-(methylsulfonyl)phenyl)-1H-pyrazolo[4,3-c]pyridine]", "values": [{"measurement": "IC50", "result": 0.11, "unit": "µM"}]}
{"compound": "Cc1cc(-c2nccc3[nH]cc(C4CC4)c23)ccc1S(C)(=O)=O", "note": "[Example 14, 3-cyclopropyl-4-(3-methyl-4-(methylsulfonyl)phenyl)-1H-pyrrolo[3,2-c]pyridine]", "values": [{"measurement": "IC50", "result": 0.099, "unit": "µM"}]}
{"compound": "Cc1cc(-c2nccc3[nH]nc(C4CC4)c23)ccc1S(=O)(=O)C1COC1", "note": "[Example 15, 3-cyclopropyl-4-(3-methyl-4-(oxetan-3-ylsulfonyl)phenyl)-1H-pyrazolo[4,3-c]pyridine]", "values": [{"measurement": "IC50", "result": 0.27, "unit": "µM"}]}
{"compound": "Cc1cc(-c2c(C#N)ncc3[nH]nc(C4CC4)c23)ccc1S(C)(=O)=O", "note": "[Example 16, 3-cyclopropyl-4-(3-methyl-4-(methylsulfonyl)phenyl)-1H-pyrazolo[3,4-c]pyridine-5-carbonitrile]", "values": [{"measurement": "IC50", "result": "< 0.013", "unit": "µM"}]}
{"compound": "Cc1cc(-c2nccc3[nH]nc(C(C)(F)F)c23)ccc1S(C)(=O)=O", "note": "[Example 17, 3-(1,1-difluoroethyl)-4-(3-methyl-4-(methylsulfonyl)phenyl)-1H-pyrazolo[4,3-c]pyridine]", "values": [{"measurement": "IC50", "result": "< 0.013", "unit": "µM"}]}
{"compound": "Cc1cc(-c2nccc3[nH]nc(C(F)F)c23)ccc1S(C)(=O)=O", "note": "[Example 18, 3-(difluoromethyl)-4-(3-methyl-4-methylsulfonylphenyl)-1H-pyraxolo[4,3-c]pyridine]", "values": [{"measurement": "IC50", "result": 0.095, "unit": "µM"}]}
{"compound": "Cc1cc(-c2nccc3[nH]nc(C(C)C)c23)ccc1S(C)(=O)=O", "note": "[Example 19, 3-isopropyl-4-(3-methyl-4-(methylsulfonyl)phenyl)-1H-pyrazolo[4,3-c]pyridine]", "values": [{"measurement": "IC50", "result": 0.042, "unit": "µM"}]}
{"compound": "Cc1cc(-c2nccc3[nH]nc(C4CC4)c23)c(F)cc1S(C)(=O)=O", "note": "[Example 21, 3-cyclopropyl-4-(2-fluoro-5-methyl-4-methylsulfonyl-phenyl)-1H-pyrazolo[4,3-c]pyridine]", "values": [{"measurement": "IC50", "result": 0.056, "unit": "µM"}]}
{"compound": "Cc1cc(S(C)(=O)=O)c(C)cc1-c1nccc2[nH]nc(C3CC3)c12", "note": "[Example 22, 3-cyclopropyl-4-(2,5-dimethyl-4-methylsulfonyl-phenyl)-1H-pyrazolo[4,3-c]pyridine hydrochloride]", "values": [{"measurement": "IC50", "result": 0.15, "unit": "µM"}]}
{"compound": "Cc1cc(-c2nccc3[nH]nc(C4CC4)c23)ccc1[S+](C)[O-]", "note": "(stereo not shown) [Example 23, 3-cyclopropyl-4-(3-methyl-4-methylsulfmyl-phenyl)-1H-pyrazolo[4,3-c]pyridine hydrochloride]", "values": [{"measurement": "IC50", "result": 0.083, "unit": "µM"}]}
{"compound": "COc1ncc2[nH]nc(C3CC3)c2c1-c1ccc(S(C)(=O)=O)c(C)c1", "note": "[Example 24, 3-cyclopropyl-5-methoxy-4-(3-methyl-4-(methylsulfonyl)phenyl)-1H-pyrazolo[3,4-c]pyridine]", "values": [{"measurement": "IC50", "result": "< 0.013", "unit": "µM"}]}
{"compound": "Cc1cc(-c2nccc3[nH]nc(OC(F)F)c23)ccc1S(=O)(=O)C(F)F", "note": "[Example 25, 3-(difluoromethoxy)-4-[4-(difluoromethylsulfonyl)-3-methyl-phenyl]-1H-pyrazolo[4,3-c]pyridine]", "values": [{"measurement": "IC50", "result": 0.013, "unit": "µM"}]}
{"compound": "Cc1cc(-c2nccc3[nH]nc(OC(F)F)c23)ccc1S(=O)(=O)C1CC1", "note": "[Example 26, 4-(4-cyclopropylsulfonyl-3-methyl-phenyl)-3-(difluoromethoxy)-1H-pyrazolo[4,3-c]pyridine]", "values": [{"measurement": "IC50", "result": "< 0.013", "unit": "µM"}]}
{"compound": "CCS(=O)(=O)c1ccc(-c2nccc3[nH]nc(OC(F)F)c23)cc1C", "note": "[Example 27, 3-(difluoromethoxy)-4-(4-ethylsulfonyl-3-methyl-phenyl)-1H-pyrazolo[4,3-c]pyridine]", "values": [{"measurement": "IC50", "result": "< 0.013", "unit": "µM"}]}
{"compound": "Cc1cc(-c2nccc3[nH]nc(C4COC4)c23)ccc1S(C)(=O)=O", "note": "[Example 28, 4-(3-methyl-4-methylsulfonyl-phenyl)-3-(oxetan-3-yl)-1H-pyrazolo[4,3-c]pyridine]", "values": [{"measurement": "IC50", "result": 0.51, "unit": "µM"}]}
{"compound": "Cc1cc(-c2nccc3[nH]nc(OC(F)F)c23)ccc1S(=O)(=O)CC1CC1", "note": "[Example 29, 4-[4-(cyclopropylmethylsulfonyl)-3-methyl-phenyl]-3-(difluoromethoxy)-1H-pyrazolo[4,3-c]pyridine]", "values": [{"measurement": "IC50", "result": 0.29, "unit": "µM"}]}
{"compound": "CCCS(=O)(=O)c1ccc(-c2nccc3[nH]nc(OC(F)F)c23)cc1C", "note": "[Example 30]", "values": [{"measurement": "IC50", "result": 0.057, "unit": "µM"}]}
{"compound": "CS(=O)(=O)c1ccc(-c2nccc3[nH]nc(OC(F)F)c23)cc1C(F)F", "note": "[Example 31]", "values": [{"measurement": "IC50", "result": 0.033, "unit": "µM"}]}
{"compound": "Cc1cc(-c2nccc3[nH]nc(OC(F)F)c23)ccc1S(=O)(=O)C(C)C", "note": "[Example 32]", "values": [{"measurement": "IC50", "result": "< 0.013", "unit": "µM"}]}
{"compound": "CNS(=O)(=O)c1ccc(-c2nccc3[nH]nc(OC(F)F)c23)cc1C", "note": "[Example 33, 4-[3-(difluoromethoxy)-1H-pyrazolo[4,3-c]pyridin-4-yl]-N,2-dimethyl-benzenesulfonamide]", "values": [{"measurement": "IC50", "result": 0.029, "unit": "µM"}]}
